Experimental data taken from patent publication US8115015B2 (Cadila Healthcare Limited, priority 2009, dated 2012).

Test: Stability of Atorvastatin Calcium Amorphous (related substances by HPLC on storage)
Type: physicochemical
[1] = 25° ± 2° C./RH 60 ± 5%, 1 Month
[2] = 25° ± 2° C./RH 60 ± 5%, 2 Months
[3] = 25° ± 2° C./RH 60 ± 5%, 3 months
[4] = 25° ± 2° C./RH 60 ± 5%, 6 Months
[5] = 25° ± 2° C./RH 60 ± 5%, 6 Months, listed as stable amorphous atrovastatin calcium
[6] = 25°±2° C./RH 60±5% for 6 months
[7] = Cold (5° C.) 2° to 8° C., 1 Month
[8] = Cold (5° C.) 2° to 8° C., 2 Months
[9] = Cold (5° C.) 2° to 8° C., 3 months
[10] = Cold (5° C.) 2° to 8° C., 6 Months
[11] = Cold (5° C.) 2° to 8° C., 6 Months, listed as stable amorphous atrovastatin calcium

hemi-calcium salt of (3R, 5R) 7-[3-phenyl-4-phenylcarbamoyl-2-(4-fluorophenyl)-5-isopropyl-pyrrol-1-yl]-3,5-dihydroxyheptanoic acid [Atorvastatin Calcium Amorphous]
single individual unknown impurities, area percentage of HPLC (20 to 8° C. under cold (5° C.) condition for 6 months): < 0.1%
Related Substance by HPLC: 3-O-Methyl Atorvastatin Calcium [1]: 0.02%
Related Substance by HPLC: Atorvastatin Desflouro Calcium [1]: 0.05%
Related Substance by HPLC: Atorvastatin Diasteroisomer [1]: 0.08%
Related Substance by HPLC: Atorvastatin Lactone [1]: 0.07%
Related Substance by HPLC: 3-O-Methyl Atorvastatin Calcium [2]: 0.03
Related Substance by HPLC: Atorvastatin Desflouro Calcium [2]: 0.06%
Related Substance by HPLC: Atorvastatin Diasteroisomer [2]: 0.10%
Related Substance by HPLC: Atorvastatin Lactone [2]: 0.05%
Related Substance by HPLC: 3-O-Methyl Atorvastatin Calcium [3]: 0.03%
Related Substance by HPLC: Atorvastatin Desflouro Calcium [3]: 0.06%
Related Substance by HPLC: Atorvastatin Diasteroisomer [3]: 0.12%
Related Substance by HPLC: Atorvastatin Lactone [3]: 0.04%
Related Substance by HPLC: 3-O-Methyl Atorvastatin Calcium [4]: 0.03%
Related Substance by HPLC: Atorvastatin Desflouro Calcium [4]: 0.06%
Related Substance by HPLC: Atorvastatin Diasteroisomer [4]: 0.11%
Related Substance by HPLC: Atorvastatin Lactone [4]: 0.05%
Related Substance by HPLC: Atorvastatin diol methyl ester [4]: less than 0.1%
Related Substance by HPLC: Atorvastatin protected diol [4]: less than 0.1%
Related Substance by HPLC: t-butyl diol ester [4]: less than 0.1%
Related Substance by HPLC: 3-O-Methyl Atorvastatin Calcium [5]: less than 0.1%
Related Substance by HPLC: Atorvastatin Desflouro Calcium [5]: less than 0.1%
Related Substance by HPLC: Atorvastatin Diasteroisomer [5]: less than 0.1%
Related Substance by HPLC: Atorvastatin Lactone [5]: less than 0.1%
single individual known impurities, area percentage of HPLC [6]: less than 0.15%
single individual unknown impurities, area percentage of HPLC [6]: less than 0.1%
Related Substance by HPLC: 3-O-Methyl Atorvastatin Calcium [7]: 0.03%
Related Substance by HPLC: Atorvastatin Desflouro Calcium [7]: 0.06%
Related Substance by HPLC: Atorvastatin Diasteroisomer [7]: 0.08%
Related Substance by HPLC: Atorvastatin Lactone [7]: 0.08%
Related Substance by HPLC: 3-O-Methyl Atorvastatin Calcium [8]: 0.03%
Related Substance by HPLC: Atorvastatin Desflouro Calcium [8]: 0.07%
Related Substance by HPLC: Atorvastatin Diasteroisomer [8]: 0.09%
Related Substance by HPLC: Atorvastatin Lactone [8]: 0.04%
Related Substance by HPLC: 3-O-Methyl Atorvastatin Calcium [9]: 0.03%
Related Substance by HPLC: Atorvastatin Desflouro Calcium [9]: 0.07%
Related Substance by HPLC: Atorvastatin Diasteroisomer [9]: 0.10%
Related Substance by HPLC: Atorvastatin Lactone [9]: 0.05%
Related Substance by HPLC: 3-O-Methyl Atorvastatin Calcium [10]: 0.03%
Related Substance by HPLC: Atorvastatin Desflouro Calcium [10]: 0.05%
Related Substance by HPLC: Atorvastatin Diasteroisomer [10]: 0.08%
Related Substance by HPLC: Atorvastatin Lactone [10]: 0.06%
Related Substance by HPLC: Atorvastatin diol methyl ester [10]: less than 0.1%
Related Substance by HPLC: Atorvastatin protected diol [10]: less than 0.1%
Related Substance by HPLC: t-butyl diol ester [10]: less than 0.1%
Related Substance by HPLC: 3-O-Methyl Atorvastatin Calcium [11]: less than 0.1%
Related Substance by HPLC: Atorvastatin Desflouro Calcium [11]: less than 0.1%
Related Substance by HPLC: Atorvastatin Diasteroisomer [11]: less than 0.1%
Related Substance by HPLC: Atorvastatin Lactone [11]: less than 0.1%
Related Substance by HPLC: 3-O-Methyl Atorvastatin Calcium (Initial): 0.02%
Related Substance by HPLC: Atorvastatin Desflouro Calcium (Initial): 0.06%
Related Substance by HPLC: Atorvastatin Diasteroisomer (Initial): 0.07%
Related Substance by HPLC: Atorvastatin Lactone (Initial): 0.09%
Related Substance by HPLC: Atorvastatin protected diol (Initial): 0.01%
single individual known impurities, area percentage of HPLC (cold (5° C.) condition for 6 months): less than 0.15%
